Experimental data reported in patent US7151096.
Where two headings read alike, the source gives them in different places.

c1cc2cc(c1)OCCCNc1ncccc1-c1ccnc(n1)N2
ring closure, yield of all isomers (from Oc1cccc(Nc2nccc(-c3cccnc3NCCCBr)n2)c1, ether bond, K2CO3, acetone, 19.3 mM, 56.0 °C, 6.0 h, 3 steps): 34.6%

c1cc2cc(c1)OCCCNc1cc(ccn1)-c1ccnc(n1)N2
ring closure, yield of all isomers (from Oc1cccc(Nc2nccc(-c3ccnc(NCCCBr)c3)n2)c1, ether bond, K2CO3, acetone, 6.5 mM, 56.0 °C, 3.0 h, 2 steps): 26.5%

O=C1Cc2cccc(c2)Nc2nccc(n2)-c2ccnc(c2)NCCCN1
ring closure, yield of all isomers (from NCCCNc1cc(-c2ccnc(Nc3cccc(CC(=O)O)c3)n2)ccn1, amide bond, HATU, DMF, 1.52 mM, 0.0 °C, 3.0 h): 74.2%
